Reference: patent US8003660B2, “Modulators of muscarinic receptors” (Vertex Pharmaceuticals Incorporated, priority 2006, dated 2011)
Read-outs that look alike come from different tables or passages of the source.

How the values were obtained:
Format in all cases: cell-based
M4 muscarinic receptor = target: T1, M4 muscarinic receptor (Homo sapiens, UniProt P08173); assay: Functional mobilization of intracellular calcium (FLIPR) in CHO cells expressing M4; conditions: for M4 Activity: CHO cells expressing M4, FLIPR calcium assay; for Emax: CHO; for EC50: CHO cells expressing M4, FLIPR calcium
T1 construct: expressed in transfected cells; host or cells: CHO (M4-CHO)
T1 sequence (P08173 1-479): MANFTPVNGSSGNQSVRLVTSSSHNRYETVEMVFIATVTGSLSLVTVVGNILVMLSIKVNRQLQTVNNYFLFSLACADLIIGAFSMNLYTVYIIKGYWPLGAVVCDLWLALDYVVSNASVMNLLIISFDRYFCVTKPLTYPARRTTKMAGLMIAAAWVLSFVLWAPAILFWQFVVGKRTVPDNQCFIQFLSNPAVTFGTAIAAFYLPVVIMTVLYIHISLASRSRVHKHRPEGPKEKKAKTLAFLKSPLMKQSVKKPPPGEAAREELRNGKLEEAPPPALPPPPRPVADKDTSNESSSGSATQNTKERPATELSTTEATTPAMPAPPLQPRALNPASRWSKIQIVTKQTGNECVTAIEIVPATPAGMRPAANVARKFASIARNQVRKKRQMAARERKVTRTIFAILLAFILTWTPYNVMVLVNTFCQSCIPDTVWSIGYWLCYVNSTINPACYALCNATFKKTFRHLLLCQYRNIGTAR
Method in brief: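 Read-out: FLIPR fluorescence (ex 488, em 540 nm) over 60 s. Recombinant CHO lines are dye-loaded (Fluo-3 AM or Calcium 3) with 1 mM probenecid. For antagonist mode, compound is pre-incubated 15 min, or co-applied, then carbachol is added at 3× EC80 per subtype.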

M2 muscarinic receptor = target: T2, M2 muscarinic receptor (Homo sapiens, UniProt P08172); assay: Functional mobilization of intracellular calcium (FLIPR) in CHO cells expressing M2; conditions: for M2 Activity: CHO cells expressing M2, FLIPR calcium assay; for Emax: CHO; for EC50: CHO cells expressing M2, FLIPR calcium
T2 construct: expressed in transfected cells; host or cells: CHO (M2-CHO)
T2 sequence (P08172 1-466): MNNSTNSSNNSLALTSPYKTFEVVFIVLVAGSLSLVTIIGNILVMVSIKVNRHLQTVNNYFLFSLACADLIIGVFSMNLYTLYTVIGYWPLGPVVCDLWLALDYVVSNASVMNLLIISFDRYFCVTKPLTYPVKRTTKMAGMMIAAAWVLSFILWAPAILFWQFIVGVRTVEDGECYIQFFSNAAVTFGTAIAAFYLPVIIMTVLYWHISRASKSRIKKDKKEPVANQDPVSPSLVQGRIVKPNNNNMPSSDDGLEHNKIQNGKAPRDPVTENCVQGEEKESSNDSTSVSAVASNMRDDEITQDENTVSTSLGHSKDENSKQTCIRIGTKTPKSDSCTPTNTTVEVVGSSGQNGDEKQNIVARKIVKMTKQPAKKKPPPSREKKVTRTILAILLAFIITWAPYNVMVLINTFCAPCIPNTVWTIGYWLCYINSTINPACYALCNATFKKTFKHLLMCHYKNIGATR
Method in brief: (§1)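 Calcium flux is read on FLIPR over 60 sec at 488/540 nm in muscarinic-receptor CHO lines. Antagonist mode adds carbachol at EC80 after 15 min compound preincubation or with simultaneous co-application. Agonist mode adds compound alone. Cells carry Fluo-3 or Calcium 3 dye in probenecid-containing pH 7.4 buffer, 0.5% DMSO final.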

M3 muscarinic receptor = target: T3, M3 muscarinic receptor (Homo sapiens, UniProt P20309); assay: Functional mobilization of intracellular calcium (FLIPR) in CHO cells expressing M3; conditions: for M3 Activity: CHO cells expressing M3, FLIPR calcium assay; for Emax: CHO; for EC50: CHO cells expressing M3, FLIPR calcium
T3 construct: expressed in transfected cells; host or cells: CHO (M3-CHO)
Method in brief: as §1

M1 muscarinic receptor = target: T4, M1 muscarinic receptor (Homo sapiens, UniProt P11229); assay: Functional mobilization of intracellular calcium (FLIPR) in CHO cells expressing M1; conditions: for M1 Activity: CHO cells expressing M1, FLIPR calcium assay; for Emax: CHO; for EC50: CHO cells expressing M1, FLIPR calcium
T4 construct: expressed in transfected cells; host or cells: CHO (M1-CHO)
T4 sequence (P11229 1-460): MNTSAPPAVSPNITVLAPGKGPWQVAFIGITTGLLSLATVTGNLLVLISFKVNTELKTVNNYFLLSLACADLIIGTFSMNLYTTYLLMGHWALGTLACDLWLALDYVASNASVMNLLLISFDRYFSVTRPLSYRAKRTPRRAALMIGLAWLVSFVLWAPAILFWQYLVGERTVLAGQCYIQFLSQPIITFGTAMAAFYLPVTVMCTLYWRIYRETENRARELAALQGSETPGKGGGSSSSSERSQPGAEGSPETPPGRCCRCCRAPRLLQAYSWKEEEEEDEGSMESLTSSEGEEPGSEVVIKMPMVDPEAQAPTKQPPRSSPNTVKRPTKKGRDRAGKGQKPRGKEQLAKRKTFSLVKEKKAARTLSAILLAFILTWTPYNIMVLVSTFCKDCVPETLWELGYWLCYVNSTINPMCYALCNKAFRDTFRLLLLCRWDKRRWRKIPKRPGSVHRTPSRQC
Method in brief: as §1

[1] = 100% efficacy = maximum response obtained with the Carbachol control
[2] = 100% = maximum response obtained with the Carbachol control, read-out: M4 Efficacy
[3] = 100% = maximum response obtained with the Carbachol control, read-out: M2 Efficacy
[4] = 100% = maximum response obtained with the Carbachol control, read-out: M3 Efficacy
[5] = 100% = maximum response obtained with the Carbachol control, read-out: M1 Efficacy

T3 sequence (P20309 whole entry): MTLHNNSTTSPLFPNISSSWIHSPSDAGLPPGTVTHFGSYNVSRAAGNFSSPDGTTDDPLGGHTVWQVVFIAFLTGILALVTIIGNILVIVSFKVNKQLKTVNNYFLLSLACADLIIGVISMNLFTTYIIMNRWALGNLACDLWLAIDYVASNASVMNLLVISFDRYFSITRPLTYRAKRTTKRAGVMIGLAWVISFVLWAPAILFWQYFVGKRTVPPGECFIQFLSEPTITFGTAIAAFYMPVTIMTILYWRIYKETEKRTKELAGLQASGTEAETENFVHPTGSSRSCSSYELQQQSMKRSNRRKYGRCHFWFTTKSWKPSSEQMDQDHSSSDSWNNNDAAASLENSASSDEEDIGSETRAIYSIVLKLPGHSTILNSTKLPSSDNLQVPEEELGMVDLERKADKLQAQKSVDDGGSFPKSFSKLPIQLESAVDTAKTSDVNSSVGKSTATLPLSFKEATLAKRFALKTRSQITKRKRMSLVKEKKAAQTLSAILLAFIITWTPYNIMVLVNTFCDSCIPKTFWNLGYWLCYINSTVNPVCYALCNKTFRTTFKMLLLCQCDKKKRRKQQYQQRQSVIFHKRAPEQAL

With CC(C)(C)CCN1CCC2(CC[C@H](N3CCCCC3=O)c3ccc(F)cc32)CC1 [compound 222] the “M4 Activity” value (M4 muscarinic receptor) was “+++ (activity was measured to be less than 2.0 μM)”, the Emax (M4 muscarinic receptor; [1]) was 25 to 100% and the “M2 Activity” value (M2 muscarinic receptor) was “+ (activity was measured to be greater than 5.0 μM)”. The Emax (M2 muscarinic receptor; [1]) was under 25%, the “M3 Activity” value (M3 muscarinic receptor) was “+ (activity was measured to be greater than 5.0 μM)” and the Emax (M3 muscarinic receptor; [1]) was under 25%. The “M1 Activity” value (M1 muscarinic receptor) was “+++ (activity was measured to be less than 2.0 μM)” and the Emax (M1 muscarinic receptor; [1]) was 25 to 100%.

Work on CC(C)(C)CCN1CCC2(CC[C@H](NC(=O)CC3CCOCC3)c3ccc(F)cc32)CC1 [compound 145] yielded an EC50 (M4 muscarinic receptor) of under 2000 nM, an Emax (M4 muscarinic receptor; [2]) of 25 to 100% and an EC50 (M2 muscarinic receptor) of under 2000 nM. The Emax (M2 muscarinic receptor; [3]) was under 25%, the EC50 (M3 muscarinic receptor) was over 5 µM and the Emax (M3 muscarinic receptor; [4]) was under 25%. The EC50 (M1 muscarinic receptor) was under 2000 nM and the Emax (M1 muscarinic receptor; [5]) was 25 to 100%.

Work on CC(C)(C)CCN1CCC2(CCCc3ccccc32)CC1 [compound 37] yielded an EC50 (M4 muscarinic receptor) of under 2000 nM, an Emax (M4 muscarinic receptor; [2]) of 25 to 100% and an EC50 (M2 muscarinic receptor) of 2000 to 5000 nM. It also gave an Emax (M2 muscarinic receptor; [3]) of 25 to 100%, an EC50 (M3 muscarinic receptor) of over 5 µM and an Emax (M3 muscarinic receptor; [4]) of under 25%. The EC50 (M1 muscarinic receptor) was 2000 to 5000 nM and the Emax (M1 muscarinic receptor; [5]) was 25 to 100%.

CC(=O)N(C(C)C)[C@H]1CCC2(CCN(CCC(C)C)CC2)c2ccccc21 [compound 47] showed an EC50 (M4 muscarinic receptor) of 2000 to 5000 nM, an Emax (M4 muscarinic receptor; [2]) of 25 to 100% and an EC50 (M2 muscarinic receptor) of over 5000 nM. It also gave an Emax (M2 muscarinic receptor; [3]) of under 25%, an EC50 (M3 muscarinic receptor) of over 5 µM and an Emax (M3 muscarinic receptor; [4]) of under 25%. It also gave an EC50 (M1 muscarinic receptor) of 2000 to 5000 nM and an Emax (M1 muscarinic receptor; [5]) of 25 to 100%.

For C=CCCCN1CCC2(CC[C@H](NC(C)=O)c3ccccc32)CC1 [compound 172], the EC50 (M4 muscarinic receptor) was under 2000 nM, the Emax (M4 muscarinic receptor; [2]) was 25 to 100% and the EC50 (M2 muscarinic receptor) was 2000 to 5000 nM. The Emax (M2 muscarinic receptor; [3]) was 25 to 100%, the EC50 (M3 muscarinic receptor) was over 5 µM and the Emax (M3 muscarinic receptor; [4]) was under 25%. The EC50 (M1 muscarinic receptor) was under 2000 nM and the Emax (M1 muscarinic receptor; [5]) was 25 to 100%.

For CCC(=O)N[C@H]1CC2(CCN(CCC(C)(C)C)CC2)c2ccccc21 [compound 230], the Emax (M4 muscarinic receptor; [1]) was 25 to 100%, the Emax (M2 muscarinic receptor; [1]) was under 25% and the Emax (M3 muscarinic receptor; [1]) was under 25%. It also gave an Emax (M1 muscarinic receptor; [1]) of 25 to 100%.

Molecule CCOCCC(=O)N[C@@H]1CCC2(CCN(CCC(C)(C)C)CC2)c2ccccc21 [compound 21] has an EC50 (M4 muscarinic receptor) of under 2000 nM, an Emax (M4 muscarinic receptor; [2]) of 25 to 100% and an EC50 (M2 muscarinic receptor) of under 2000 nM. The Emax (M2 muscarinic receptor; [3]) was 25 to 100%, the EC50 (M3 muscarinic receptor) was over 5 µM and the Emax (M3 muscarinic receptor; [4]) was under 25%. The EC50 (M1 muscarinic receptor) was under 2000 nM and the Emax (M1 muscarinic receptor; [5]) was 25 to 100%.

In the case of CC(=O)N[C@H]1CCC2(CCN(CCC(C)(C)C)CC2)c2ccccc21 [Compound No. 190, (S)-N-(1′-(3,3-dimethylbutyl)-3,4-dihydro-2H -spiro[naphthalene-1,4′-piperidine]-4-yl)acetamide], the “M4 Activity” value (M4 muscarinic receptor) is reported as “+++ (activity was measured to be less than 2.0 μM)”, the Emax (M4 muscarinic receptor; [1]) is reported as 25 to 100% and the “M2 Activity” value (M2 muscarinic receptor) is reported as “+++ (activity was measured to be less than 2.0 μM)”. For the same molecule, the Emax (M2 muscarinic receptor; [1]) was 25 to 100%, the “M3 Activity” value (M3 muscarinic receptor) was “+ (activity was measured to be greater than 5.0 μM)” and the Emax (M3 muscarinic receptor; [1]) was under 25%. The “M1 Activity” value (M1 muscarinic receptor) was “+++ (activity was measured to be less than 2.0 μM)” and the Emax (M1 muscarinic receptor; [1]) was 25 to 100%.

CCOCC(=O)N[C@H]1CCC2(CCN(CCC(C)(C)C)CC2)c2ccccc21 [compound 70] was tested, and the EC50 (M4 muscarinic receptor) was under 2000 nM, the Emax (M4 muscarinic receptor; [2]) was 25 to 100% and the EC50 (M2 muscarinic receptor) was under 2000 nM. The Emax (M2 muscarinic receptor; [3]) was under 25%, the EC50 (M3 muscarinic receptor) was over 5 µM and the Emax (M3 muscarinic receptor; [4]) was under 25%. The EC50 (M1 muscarinic receptor) was under 2000 nM and the Emax (M1 muscarinic receptor; [5]) was 25 to 100%.
